Laboratory results as given in US9624167B2, “N-(4-hydroxy-4-methyl-cyclohexyl)-4-phenyl-benzenesulfonamides and N-(4-hydroxy-4-methyl-cyclohexyl)-4-(2-pyridyl)benzenesulfonamides and their therapeutic use” (PIMCO 2664 LIMITED, priority 2013, dated 2017).

System: CD4+ T-lymphocytes
Test: Human primary leucocyte viability: CD4+ T-lymphocytes
Type: cell-based
Conditions: 3 μM, 48 hours
Protocol: The effects of the reference compound (ABD735) on the viability of neutrophils, monocytes, CD4+ and CD8+ T-cells and B-lymphocytes was assessed under both resting and stimulated conditions. Resting conditions were used to assess likely effects on normal cells found in human blood, and stimulated conditions were used to assess the effects of the compound under disease conditions.
Effects on cell viability were assessed using flow cytometry. Flow cytometry is a laser-based, biophysical technology employed in cell counting, cell sorting, and biomarker detection, by suspending cells in a stream of fluid and passing them by an electronic detection apparatus. It allows simultaneous multi-parametric analysis of the physical and chemical characteristics of up to thousands of particles per second. The sorting of cells using flow cytometry requires the use of specific cell markers. To quantify cell numbers, counting beads are used as an internal standard. […] In addition, for B- and T-lymphocytes, cell proliferation was measured using a dye known as Cell Proliferation Dye (eFluor® 450). eFluor® 450 is an organic dye which can be conjugated to cell-specific markers. […]
The average results (n=3) for the reference compound (ABD735) were expressed as a fold change versus the average control value. […]

Cc1cc(S(=O)(=O)N[C@H]2CC[C@H](O)CC2)ccc1-c1ccc(F)cc1F [ABD735]
Fold change in viability (no stimulation): 0.9 | Fold change in viability (phytohaemagglutinin): 0.6
